Data reported in US7425631B2 (Amgen Inc., priority 2003, dated 2008).

Target: T1, human B1 receptor (Homo sapiens, UniProt P46663)
T1 construct: expressed in transfected cells
T1 sequence (P46663 1-353): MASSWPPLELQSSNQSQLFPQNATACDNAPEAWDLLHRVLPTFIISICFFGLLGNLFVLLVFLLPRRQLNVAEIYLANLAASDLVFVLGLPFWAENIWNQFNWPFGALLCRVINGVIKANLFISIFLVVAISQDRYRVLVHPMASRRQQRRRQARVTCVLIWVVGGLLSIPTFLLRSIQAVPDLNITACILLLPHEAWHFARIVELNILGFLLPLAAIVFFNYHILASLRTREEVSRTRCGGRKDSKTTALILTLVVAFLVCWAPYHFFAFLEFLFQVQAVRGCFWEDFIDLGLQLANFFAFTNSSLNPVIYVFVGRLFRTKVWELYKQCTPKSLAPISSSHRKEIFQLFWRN
Assay: In vitro assay of human B1 receptor function using calcium flux (aequorin luminescence)
Type: cell-based
Settings: CHO D-/hB1/Aequorin cells, agonist 20 nM des-Arg10-Kallidin (EC80); read-out: binding IC50's to hB1 receptor function
Experimental: Activation of the Gq linked B1 receptor results in an increase in intracellular calcium. […] Aequorin is a 21-kDa photoprotein that forms a bioluminescent complex when linked to the chromophore cofactor coelenterazine.
Following coelenterazine incubation, an automated flash-luminometer platform was used to dispense the B1 antagonist compounds (dissolved in DMSO and diluted with buffer to the desired concentration (final DMSO concentration <1% DMSO)) to the cell plate, a CCD camera situated underneath the cell plate took 12 images of the cell plate at 5 second intervals to determine if there was any agonist activity with the compounds. The hB1 agonist, des-Arg10-Kallidin, was added to the cell plate and another 12 images were recorded to determine the IC50 of the antagonist(s).

C=C(CN1CC[C@H](O)C1)c1ccc2c(c1)CCC[C@H]2NC(=O)C[C@@H](NS(=O)(=O)c1cccc(C(F)(F)F)c1)c1ccccc1 [Example 218j, (3R)-N-((1R)-6-(1-(((3S)-3-hydroxy-1-pyrrolidinyl)methyl)ethenyl)-1,2,3,4-tetrahydro-1-naphthalenyl)-3-phenyl-3-(((3-(trifluoromethyl)phenyl)sulfonyl)amino)propanamide]
IC50: < 10 nM

C=C(CN1CCCC1)c1ccc2c(c1)CCC[C@H]2NC(=O)C[C@@H](NS(=O)(=O)c1cccc(C(F)(F)F)c1)c1ccccc1 [Example 218q, (3R)-3-phenyl-N-((1R)-6-(1-(1-pyrrolidinylmethyl)ethenyl)-1,2,3,4-tetrahydro-1-naphthalenyl)-3-(((3-(trifluoromethyl)phenyl)sulfonyl)amino)propanamide]
IC50: < 10 nM

C=C(CN1CCCCC1)c1ccc2c(c1)CCC[C@H]2NC(=O)C[C@@H](NS(=O)(=O)c1cccc(C(F)(F)F)c1)c1ccccc1 [Example 218r, (3R)-3-phenyl-N-((1R)-6-(1-(1-piperidinylmethyl)ethenyl)-1,2,3,4-tetrahydro-1-naphthalenyl)-3-(((3-(trifluoromethyl)phenyl)sulfonyl)amino)propanamide]
IC50: < 10 nM

CC(C)CNC(C)c1ccc2c(c1)CCC[C@H]2NC(=O)C[C@@H](NS(=O)(=O)c1cccc(C(F)(F)F)c1)c1ccccc1 (stereo partly drawn) [Example 220a, (3R)-3-((hydroxy(oxido)(3-(trifluoromethyl)phenyl)-lambda-4—sulfanyl)amino)-N-((1R)-6-((1R)-1-((2-methylpropyl)amino)ethyl)-1,2,3,4-tetrahydro-1-naphthalenyl)-3-phenylpropanamide]
IC50: < 10 nM

CC(C)CNC(C)c1ccc2c(c1)CCC[C@H]2NC(=O)C[C@@H](NS(=O)(=O)c1ccc2ccccc2c1)c1ccccc1 (some centres unmarked) [Example 220g]
IC50: < 10 nM

CC(C)(C)NCc1ccc2c(c1)CCC[C@H]2NC(=O)C[C@H](NS(=O)(=O)c1cccc(C(F)(F)F)c1)c1ccc(F)cc1 [a, (3S)-N-((1R)-6-(((1,1-dimethylethyl)amino)-methyl)-1,2,3,4-tetrahydro-1-naphthalenyl)-3-(4-fluorophenyl)-3-(((3-(trifluoromethyl)phenyl)-sulfonyl)amino)propanamide]
IC50: < 10 nM

CN([C@H](CC(=O)N[C@@H]1CCCc2cc(CN3CCCCC3)ccc21)c1ccccc1)S(=O)(=O)c1cccc(C(F)(F)F)c1 [aa, (3R)-3-(methyl((3-(trifluoromethyl)phenyl)sulfonyl)amino)-3-phenyl-N-((1R)-6-(1-piperidinylmethyl)-1,2,3,4-tetrahydro-1-naphthalenyl)propanamide]
IC50: < 10 nM

Cc1c(S(=O)(=O)N[C@H](CC(=O)NC2CCCc3cc(CNC(C)(C)C)ccc32)c2ccccc2)sc2ccc(Cl)cc12 (stereo partly drawn) [ad, (3R)-3-(((5-chloro-3-methyl-1-benzothien-2-yl)sulfonyl)amino)-N-(6-(((1,1-dimethylethyl)amino)methyl)-1,2,3,4-tetrahydro-1-naphthalenyl)-3-phenylpropanamide]
IC50: < 10 nM

Cc1c(S(=O)(=O)N[C@H](CC(=O)NC2CCCc3cc(CN4CCCCC4)ccc32)c2ccccc2)sc2ccc(Cl)cc12 (stereo partly drawn) [ae, (3R)-3-(((5-chloro-3-methyl-1-benzothien-2-yl)sulfonyl)amino)-3-phenyl-N-(6-(1-piperidinylmethyl)-1,2,3,4-tetrahydro-1-naphthalenyl)propanamide]
IC50: < 10 nM

O=C(C[C@@H](NS(=O)(=O)c1cccc(C(F)(F)F)c1)c1ccccc1)N[C@@H]1CCCc2cc(CN3CC=CCC3)ccc21 [am, (3R)-N-((1R)-6-(3,6-dihydro-1(2H)-pyridinylmethyl)-1,2,3,4-tetrahydro-1-naphthalenyl)-3-phenyl-3-(((3-(trifluoromethyl)phenyl)sulfonyl)amino)propanamide]
IC50: < 10 nM

COc1ccc([C@@H](CC(=O)N[C@@H]2CCCc3cc(CN4CCCCC4)ccc32)NS(=O)(=O)c2cc3cc(Cl)ccc3s2)cn1 [aw, (3R)-3-(((5-chloro-1-benzothien-2-yl)sulfonyl)amino)-3-(6-(methyloxy)-3-pyridinyl)-N-((1R)-6-(1-piperidinylmethyl)-1,2,3,4-tetrahydro-1-naphthalenyl)propanamide]
IC50: < 10 nM

COc1ccc([C@@H](CC(=O)N[C@@H]2CCCc3cc(CN4CCCCC4)ccc32)NS(=O)(=O)c2cccc(C(F)(F)F)c2)cn1 [ay, (3R)-3-(6-(methyloxy)-3-pyridinyl)-N-((1R)-6-(1-piperidinylmethyl)-1,2,3,4-tetrahydro-1-naphthalenyl)-3-(((3-(trifluoromethyl)phenyl)sulfonyl)amino)propanamide]
IC50: < 10 nM

CC(C)CNCc1ccc2c(c1)CCC[C@H]2NC(=O)C[C@@H](NS(=O)(=O)c1ccc(Cl)c(Cl)c1)c1ccccc1 [bg, (3R)-3-(((3,4-dichlorophenyl)sulfonyl)amino)-N-((1R)-6-(((2-methylpropyl)amino)methyl)-1,2,3,4-tetrahydro-1-naphthalenyl)-3-phenylpropanamide]
IC50: < 10 nM

CC(C)(C)NCc1ccc2c(c1)CCC[C@H]2NC(=O)C[C@@H](NS(=O)(=O)c1ccc(Cl)c(Cl)c1)c1ccccc1 [bm, (3R)-3-(((3,4-dichlorophenyl)sulfonyl)amino)-N-((1R)-6-(((1,1-dimethylethyl)amino)methyl)-1,2,3,4-tetrahydro-1-naphthalenyl)-3-phenylpropanamide]
IC50: < 10 nM

O=C(CC(NS(=O)(=O)c1ccc(Cl)c(Cl)c1)c1ccc(F)cc1)NC1CCOc2cc(CN3CCCCC3)ccc21 (centres unmarked) [by, 3-(3,4-Dichloro-benzenesulfonylamino)-3-(4-fluoro-phenyl)-N-(7-piperidin-1-ylmethyl-chroman-4-yl)-propionamide]
IC50: < 10 nM

O=C(C[C@@H](NS(=O)(=O)c1ccc(Cl)c(Cl)c1)c1ccc(F)cc1)N[C@@H]1CCCc2cc(CN3CCCCC3)ccc21 [bz, 3-(3,4-Dichloro-benzenesulfonylamino)-3-(4-fluoro-phenyl)-N-(6-piperidin-1-ylmethyl-1,2,3,4-tetrahydro-naphthalen-1-yl)-propionamide]
IC50: < 10 nM

COCCNCc1ccc2c(c1)OCC[C@H]2NC(=O)C[C@@H](NS(=O)(=O)c1ccc(Cl)c(Cl)c1)c1ccc(F)cc1 [ce, 3-(3,4-Dichloro-benzenesulfonylamino)-3-(4-fluoro-phenyl)-N-{7-[(2-methoxy-ethylamino)-methyl]-chroman-4-yl}-propionamide]
IC50: < 10 nM

CC(C)(C)NCc1ccc2c(c1)CCC[C@H]2NC(=O)C[C@@H](NS(=O)(=O)c1ccc(Cl)c(Cl)c1)c1ccc(F)cc1 [cj, N-[6-(tert-Butylamino-methyl)-1,2,3,4-tetrahydro-naphthalen-1-yl]-3-(3,4-dichloro-benzenesulfonylamino)-3-(4-fluoro-phenyl)-propionamide]
IC50: < 10 nM

CC(C)CNCc1ccc2c(c1)OCC[C@H]2NC(=O)C[C@@H](NS(=O)(=O)c1cccc(C(F)(F)F)c1)c1ccc(F)cc1 [cl, 3-(4-Fluoro-phenyl)-N-[7-(isobutylamino-methyl)-chroman-4-yl]-3-(3-trifluoromethyl-benzenesulfonylamino)-propionamide]
IC50: < 10 nM

CC(C)(C)NCc1ccc2c(c1)OCC[C@H]2NC(=O)C[C@@H](NS(=O)(=O)c1cccc(C(F)(F)F)c1)c1ccc(F)cc1 [co, N-[7-(tert-Butylamino-methyl)-chroman-4-yl]-3-(4-fluoro-phenyl)-3-(3-trifluoromethyl-benzenesulfonylamino)-propionamide]
IC50: < 10 nM
